± gives the standard deviation of the averaged measurements.
Tested on: MES-SA
Assay: relative viability vs DMSO control (72 h) (fraction); higher = more viable cells
How it was run: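 Percent growth from ATPLite readings, averaged over up to triplicate wells, was used as relative viability. Sarcoma cell lines were seeded into 384-well plates for 80–90% confluence, dosed after 24 h, and kept 72 h at 37 °C, 5% CO2. Data were rescaled to a range where 1 is full and 0 is none.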

| SMILES | relative viability (0.00017 µM) | relative viability (0.00051 µM) | relative viability (0.00152 µM) | relative viability (0.00457 µM) | relative viability (0.01372 µM) | relative viability (0.04115 µM) | relative viability (0.1235 µM) | relative viability (0.3704 µM) | relative viability (1.111 µM) | relative viability (3.333 µM) | relative viability (10 µM) |
| --- | --- | --- | --- | --- | --- | --- | --- | --- | --- | --- | --- |
| COc1cc2/c(=N/c3ccc(Br)cc3F)nc[nH]c2cc1OCC1CCN(C)CC1 [Vandetanib] | 0.907 ± 0.02 | 0.925 ± 0.033 | 0.9 ± 0.013 | 0.932 ± 0.041 | 0.909 ± 0.053 | 0.907 ± 0.054 | 0.926 ± 0.022 | 0.909 ± 0.035 | 0.804 ± 0.029 | 0.6028 ± 0.0021 | 0.127 ± 0.0064 |
| CCc1cc2c(cc1N1CCC(N3CCOCC3)CC1)C(C)(C)c1[nH]c3cc(C#N)ccc3c1C2=O [Alectinib] | 0.896 ± 0.018 | 0.91 ± 0.026 | 0.895 ± 0.045 | 0.893 ± 0.036 | 0.889 ± 0.068 | 0.944 ± 0.035 | 0.953 ± 0.035 | 0.9459 ± 0.0094 | 0.942 ± 0.018 | 0.968 ± 0.049 | 0.959 ± 0.035 |
| Cc1nc(-c2cn3c(n2)-c2ccc(-c4cnn(C(C)(C)C(N)=O)c4)cc2OCC3)n(C(C)C)n1 [Taselisib] | 0.901 ± 0.028 | 0.9023 ± 0.004 | 0.887 ± 0.033 | 0.858 ± 0.021 | 0.797 ± 0.035 | 0.692 ± 0.01 | 0.504 ± 0.015 | 0.386 ± 0.014 | 0.299 ± 0.0098 | 0.214 ± 0.0027 | 0.146 ± 0.0072 |
| O=C(Cc1ccc(-c2ccc(OCCN3CCOCC3)cc2)cn1)NCc1ccccc1 [KX2-391] | 0.988 ± 0.041 | 0.976 ± 0.018 | 0.946 ± 0.018 | 0.949 ± 0.026 | 0.9439 ± 0.0022 | 0.448 ± 0.042 | 0.2711 ± 0.0024 | 0.179 ± 0.0046 | 0.143 ± 0.0031 | 0.133 ± 0.004 | 0.13 ± 0.0027 |

Source: the supplement of paper PMC10883282
